Experiments:
[1] = system: OP50 E. coli; assay: Bacterial growth assay (OD600); format: cell-based, Escherichia coli; conditions: after 12 hours, 37° C
Experimental: The effects of test compounds on growth of the OP50 E. coli feed was assayed using optical density at 600 nm (OD600). Using standard microtitre plates, replicate wells of 200 μL of sterile Luria broth were inoculated with 2 μL of an overnight OP50 culture in addition to the stated final concentrations of ampicillin (Amp), Lip-1 and SIH. OD600 measures were taken after 12 hours in an EnSpire (PerkinElmer) spectrophotometric plate reader preset to 37° C., with 30 sec of 200 rpm orbital shaking every 10 minutes.
Data was averaged across duplicate experiments, each with eight replicate wells per treatment where a baseline of Luria broth without an inoculate was subtracted.

[2] = system: iron; assay: X-ray fluorescence microscopy, elemental mapping of iron; format: in vivo, Caenorhabditis elegans; parameters: areal density of iron, Mean Diff. / total body iron, 75% Percentile / total body iron, Maximum / total body iron, Mean / total body iron, Minimum / total body iron, 25% Percentile / total body iron, Median / total body iron, Mean Diff.: unit not given here; conditions: for areal density iron, 25% Percentile / areal density iron, 75% Percentile / areal density iron, Maximum / areal density iron, Mean / areal density iron, Median / areal density iron, Minimum / total body iron, 25% Percentile / total body iron, 75% Percentile / total body iron, Maximum / total body iron, Mean / total body iron, Median / total body iron, Minimum: 250 μM SIH or 200 μM Lip-1; for areal density of iron with aging: Tables 11 and 12; for total body iron, 25% Percentile / total body iron, 75% Percentile / total body iron, Maximum / total body iron, Mean / total body iron, Median / total body iron, Minimum: per worm
Experimental: Specimens were prepared for XFM using previously described protocols. Briefly, adult C. elegans were removed from NGM, washed four times in excess S-basal (0.1 M NaCl; 0.05 M KHPO4 at pH 6.0), briefly in ice-cold 18 MΩ resistant de-ionized H2O (Millipore) and twice in ice-cold CH3COONH4 (1.5% w/v). Samples were transferred onto 0.5 μm-thick silicon nitride (Si3N4) window (Silson), excess buffer wicked away and then the slide was frozen in liquid nitrogen (N2)-chilled liquid propane using a KF-80 plunge freezer (Leica Microsystems). The samples were lyophilised overnight at −40° C. and stored under low vacuum until required.
The distribution of metals was mapped at the X-ray Fluorescence Microscopy beamline at the Australian Synchrotron using the Maia detector system. The distribution of elements with atomic number<37 were mapped using an incident beam of 15.6 keV X-rays. This incident energy allowed clear separation of X-ray fluorescence (XRF) peaks from the relatively intense elastic and inelastic scatter. The incident beam (^˜1.71×10^9 photons s^−1) was focussed to approximately 2×2 μm^2(H×V, FWHM) in the sample plane and the specimen was continuously scanned through focus (1 mm sec^−1). The resulting XRF was binned in 0.8 jim intervals in both the horizontal and vertical giving virtual pixels spanning 0.64 jim^2 of the specimen probed with a dwell time of […]. XRF intensity was normalized to the incident beam flux monitored with a nitrogen filled ionization chamber with a 27 cm path length placed upstream of the focusing optics. Three single-element thin metal foils of known areal density (Mn 18.9 jig cm^−2, Fe 50.1 jig cm^−2 and Pt 42.2 jig cm^−2, Micromatter, Canada) were used to calibrate the relationship between fluorescence flux at the detector and elemental abundance. Dynamic Analysis, as implemented in GeoPIXE 7.3 (CSIRO), was used to deconvolve the full XRF spectra at each pixel in the scan region to produce quantitative elemental maps. This procedure includes a correction for an assumed specimen composition and thickness, in this case 30 jim of cellulose. Though unlikely to exactly match the actual sample characteristics, deviations from these assumptions are not significant for the results presented in this study as the effects of beam attenuation and self-absorption on calcium and iron XRF are negligible for a dried specimen of this type and size.
Analysis of elemental XRF maps was performed using a combination of tools native to GeoPIXE and ImageJ. Incident photons inelastically scattered (Compton scatter) from the sample detail the extent and internal structure of individual C. elegans. The differential scattering power of the specimens and substrate allowed individual animals (or parts thereof) to be identified as regions of interest (ROI) facilitating analysis of elemental content on a ‘per worm’ basis. This segmentation of each elemental map was achieved using the histogram of pixel intensities from Compton maps to locate the clusters within the image. ROIs composed of <10,000 pixels were deemed to be so small that their elemental content was not reflective of the elemental content of whole animals and so these were excluded from the analysis. The ‘non-worm’ region of each scan was used to calculate the value specimen elemental content was distinguishable from background noise, i.e. the critical value. The background corrected elemental maps were used to establish the areal densities and the total mass of each element associated with individual ROIs.

[3] = Day 4 Control vs. Day 4 treated (control minus treated)
[4] = Day 4 treated vs. Day 8 treated, same treatment
[5] = Day 8 Control vs. Day 8 treated (control minus treated)

Row | Structure (SMILES) | growth of OP50 E. coli (OD600) [1] | areal density iron, 25% Percentile ([2]; Day 4) [pg μm^−2] | areal density iron, 75% Percentile ([2]; Day 4) [pg μm^−2] | areal density iron, Maximum ([2]; Day 4) [pg μm^−2] | areal density iron, Mean ([2]; Day 4) [pg μm^−2] | areal density iron, Median ([2]; Day 4) [pg μm^−2] | areal density iron, Minimum ([2]; Day 4) [pg μm^−2] | areal density of iron, Mean Diff. [2, 3] | total body iron, Mean Diff. [2, 3] | areal density of iron, Mean Diff. [2, 4] | total body iron, Mean Diff. [2, 4] | areal density iron, 25% Percentile ([2]; Day 8) [pg μm^−2] | areal density iron, 75% Percentile ([2]; Day 8) [pg μm^−2] | areal density iron, Maximum ([2]; Day 8) [pg μm^−2] | areal density iron, Mean ([2]; Day 8) [pg μm^−2] | areal density iron, Median ([2]; Day 8) [pg μm^−2] | areal density iron, Minimum ([2]; Day 8) [pg μm^−2] | areal density of iron, Mean Diff. [2, 5] | total body iron, Mean Diff. [2, 5] | areal density of iron with aging [2] | other results
1 | Clc1cccc(CNC2=Nc3ccccc3NC23CCNCC3)c1 [Lip-1, N-[(3-chlorophenyl)methyl]-spiro[piperidine-4,2′(1′H)-quinoxalin]-3′-amine] | neither Lip-1 nor SIH suppressed bacterial growth | 630.3 | 732.2 | 851.8 | 698.5 | 711.4 | 590.5 | −32.28 | 12.74 | −123.1 | −51.79 | 726.5 | 892.4 | 1143 | 821.6 | 800.5 | 644 | −1.229 | −10.7 | did not alter iron density | total body iron, 25% Percentile ([2]; Day 4): 91.34; total body iron, 75% Percentile ([2]; Day 4): 129.5; total body iron, Maximum ([2]; Day 4): 148.6; total body iron, Mean ([2]; Day 4): 113.3; total body iron, Median ([2]; Day 4): 114.6; total body iron, Minimum ([2]; Day 4): 71.51; total body iron, 25% Percentile ([2]; Day 8): 128.9; total body iron, 75% Percentile ([2]; Day 8): 189.6; total body iron, Maximum ([2]; Day 8): 277.9; total body iron, Mean ([2]; Day 8): 165.1; total body iron, Median ([2]; Day 8): 157.2; total body iron, Minimum ([2]; Day 8): 100
2 | O=C(N/N=C/c1ccccc1O)c1ccncc1 [SIH, Salicylaldehyde isonicotinoyl hydrazone] | neither Lip-1 nor SIH suppressed bacterial growth | 298.3 | 357.3 | 412.1 | 321.8 | 304.4 | 267.1 | 344.4 | 57.71 | −112.9 | −70.26 | 381.9 | 501.9 | 558 | 434.7 | 408.9 | 324.2 | 385.6 | 15.8 | dramatically reduced | areal density of iron, Mean Diff. ([2]; Day 4 SIH vs. Day 4 Lip-1): −376.6; total body iron, Mean Diff. ([2]; Day 4 SIH vs. Day 4 Lip-1): −44.97; total iron load ([2]; Day 8): on par with the untreated control group; areal density of iron, Mean Diff. ([2]; Day 8 SIH vs. Day 8 Lip-1): −389.9; total body iron, Mean Diff. ([2]; Day 8 SIH vs. Day 8 Lip-1): −26.49; total body iron, 25% Percentile ([2]; Day 4): 61.28; total body iron, 75% Percentile ([2]; Day 4): 71.8; total body iron, Maximum ([2]; Day 4): 98.92; total body iron, Mean ([2]; Day 4): 68.37; total body iron, Median ([2]; Day 4): 66.78; total body iron, Minimum ([2]; Day 4): 41.07; total body iron, 25% Percentile ([2]; Day 8): 117.5; total body iron, 75% Percentile ([2]; Day 8): 169.5; total body iron, Maximum ([2]; Day 8): 202; total body iron, Mean ([2]; Day 8): 138.6; total body iron, Median ([2]; Day 8): 127.5; total body iron, Minimum ([2]; Day 8): 74.16
